Test results taken from article PMC6853638, “TMC1 is an essential component of a leak channel that modulates tonotopy and excitability of auditory hair cells in mice” (eLife, 2019).
Several values for one entry are separate records, joined by “and”; a condition that tells them apart may be missing. Equal entries are not always repeated. Where two headings read alike, the source gives them in different places. One block for each molecule: values may come before it.

Legend:
Assay type in all cases: cell-based
leak current in OHCs = target: T1, leak current in OHCs (Mus musculus, UniProt Q8R4P5); assay: Ion-permeation tests of the leak current (ion substitution in the external solution); settings: 150 mM NaCl partially or completely replaced (150 mM CsCl; 75 mM Ca2+); compared with Na+
T1 construct: the basilar membrane with hair cells was acutely dissected from neonatal mice; endogenous in cells; host or cells: outer hair cells of acutely dissected neonatal mouse cochlea
T1 sequence (Q8R4P5 1-757): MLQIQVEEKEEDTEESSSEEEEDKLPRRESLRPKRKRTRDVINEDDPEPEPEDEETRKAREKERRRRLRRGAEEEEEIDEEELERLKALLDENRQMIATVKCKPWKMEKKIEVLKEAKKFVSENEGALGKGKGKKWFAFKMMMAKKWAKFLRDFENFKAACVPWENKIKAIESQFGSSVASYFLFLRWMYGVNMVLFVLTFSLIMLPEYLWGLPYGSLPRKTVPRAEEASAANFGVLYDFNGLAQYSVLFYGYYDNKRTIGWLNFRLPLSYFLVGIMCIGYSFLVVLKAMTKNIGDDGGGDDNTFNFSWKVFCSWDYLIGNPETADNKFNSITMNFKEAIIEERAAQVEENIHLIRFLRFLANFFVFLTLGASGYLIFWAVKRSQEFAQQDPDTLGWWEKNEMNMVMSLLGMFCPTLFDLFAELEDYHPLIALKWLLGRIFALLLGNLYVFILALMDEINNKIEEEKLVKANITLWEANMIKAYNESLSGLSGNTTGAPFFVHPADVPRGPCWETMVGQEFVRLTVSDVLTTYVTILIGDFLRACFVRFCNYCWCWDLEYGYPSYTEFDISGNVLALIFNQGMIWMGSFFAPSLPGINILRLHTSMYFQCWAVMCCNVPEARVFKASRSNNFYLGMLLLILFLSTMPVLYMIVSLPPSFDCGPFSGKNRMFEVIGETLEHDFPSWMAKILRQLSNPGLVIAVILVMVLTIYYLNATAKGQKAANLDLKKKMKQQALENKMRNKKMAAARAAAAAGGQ
Method: (§1) Hair cells were recorded using whole-cell voltage or current clamp as previously described ([Xiong et al., 2012]). All experiments were performed at room temperature (20–25°C). Briefly, the basilar membrane with hair cells was acutely dissected from neonatal mice. […] The acutely isolated or cultured basilar membrane was used for electrophysiological recording within 1 h. Hair cells were imaged under an upright microscope (BX51WI, Olympus, Tokyo, Japan) with a 60 × water immersion objective and an sCMOS camera (ORCA Flash4.0, Hamamatsu, Hamamatsu City, Japan) controlled by MicroManager 1.6 software ([Edelstein et al., 2010]). Patch pipettes were made from borosilicate glass capillaries (BF150-117-10, Sutter Instrument Co., Novato, CA) with a pipette puller (P-2000, Sutter) and polished on a microforge (MF-830, Narishige, Tokyo, Japan) to resistances of 4–6 M'Ω. Intracellular solution contained (in mM): 140 CsCl, 1 MgCl2, 0.1 EGTA, 2 Mg-ATP, 0.3 Na-GTP, and 10 H-HEPES, pH 7.2), except when CsCl was replaced with KCl in current-clamp. Hair cells were recorded with a patch-clamp amplifier (EPC 10 USB and Patchmaster software, HEKA Elektronik, Lambrecht/Pfalz, Germany).
In Figure 6A, LiCl and CsCl were 150 mM, completely substituting for NaCl.

[1] = target: T2, TMC1-mediated leak conductance (Mus musculus, UniProt Q8R4P5); assay: Background/leak current (IBG) inhibition by blockers, whole-cell voltage clamp of OHCs
T2 sequence (Q8R4P5 1-757): T1 sequence (Q8R4P5 1-757)
Method: as §1, with “Intracellular solution contained (in mM): 140 CsCl, 1 MgCl2, 0.1 EGTA, 2 Mg-ATP, 0.3 Na-GTP, and 10 H-HEPES, pH 7.2), except when CsCl was replaced with KCl in current-clamp.” left out
(§2) The sampling rate was 1 kHz for leak current recording, 50 kHz for the IV protocol and current-clamp recording, and 100 kHz for unitary channel recording. The voltage-clamp used a –70 mV holding potential, and the current-clamp was held at 0 pA. Only recordings with a current baseline <20 pA in NMDG solution were used for statistical analysis.
(§3) Dose-inhibition curves were fitted with a Hill equation: Ix/Imax=X^h/(K^h+X^h))
(§4) Where K is the half-inhibition dose (IC50) and h is the Hill slope. Imax is the maximal current in control condition.

MET channel = target: T3, MET channel (Mus musculus, UniProt Q8R4P5); assay: MET current (IMET) inhibition by blockers, whole-cell voltage clamp of OHCs with glass-probe hair-bundle deflection
T3 construct: the basilar membrane with hair cells was acutely dissected from neonatal mice; endogenous in cells; host or cells: outer hair cells of acutely dissected neonatal mouse cochlea
T3 sequence (Q4KL25 whole entry partner, one chain of several): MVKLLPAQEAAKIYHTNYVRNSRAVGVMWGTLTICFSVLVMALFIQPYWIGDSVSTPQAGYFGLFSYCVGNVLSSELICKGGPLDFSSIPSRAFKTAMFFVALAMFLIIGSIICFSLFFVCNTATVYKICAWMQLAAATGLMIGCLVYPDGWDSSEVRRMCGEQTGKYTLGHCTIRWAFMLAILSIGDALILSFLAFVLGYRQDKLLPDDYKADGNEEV
T3 sequence (Q8K467 29-153 partner, one chain of several): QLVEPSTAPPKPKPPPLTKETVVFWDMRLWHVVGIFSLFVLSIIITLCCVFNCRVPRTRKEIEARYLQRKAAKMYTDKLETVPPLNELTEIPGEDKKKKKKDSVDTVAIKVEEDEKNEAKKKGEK
T3 sequence (Q9Z309 whole entry partner, one chain of several): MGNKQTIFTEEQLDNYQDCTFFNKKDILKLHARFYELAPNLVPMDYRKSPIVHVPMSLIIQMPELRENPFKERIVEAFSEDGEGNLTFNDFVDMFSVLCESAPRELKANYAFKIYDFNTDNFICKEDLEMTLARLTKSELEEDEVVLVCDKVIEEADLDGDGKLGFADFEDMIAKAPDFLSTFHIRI
Method: All experiments were performed at room temperature (20–25°C). Briefly, the basilar membrane with hair cells was acutely dissected from neonatal mice. […] The acutely isolated or cultured basilar membrane was used for electrophysiological recording within 1 h. […] Hair cells were recorded with a patch-clamp amplifier (EPC 10 USB and Patchmaster software, HEKA Elektronik, Lambrecht/Pfalz, Germany).
as §2
The hair bundle was deflected by two types of mechanical stimulus, fluid jet and glass probe. […] In brief, a 40 Hz sinusoidal wave stimulus was delivered by a 27-mm-diameter piezoelectric disc driven by a home-made piezo amplifier pipette with a tip diameter of 3–5 μm positioned 5–10 μm from the hair bundle to evoke maximum MET currents. […] The actuator was driven with voltage steps that were low-pass filtered at 10 KHz. To avoid bundle damage caused by overstimulation, the glass probe was shaped to have a slightly smaller diameter than the hair bundles, and the stimulation distance was 800 nm for macroscopic current and 100 nm for unitary channel recording. For hair bundle removal, a pipette with 1 μm diameter tip was used to suck away the hair bundles of the target OHCs. The hair-bundle-removed OHCs with good condition were further recorded. Examined by a fluid-jet stimulation, the OHCs without obvious MET current were further measured for the leak current.
as §3, §4

[2] = target: T4, TMC1-mediated leak current (Mus musculus, UniProt Q8R4P5); assay: MET-independent leak current (ILeak) in OHCs, MET channel closed by fluid jet or 100 μM DHS, NMDG subtraction (also by cochlear location and age); settings: 0.3 mM Ca2+
T4 construct: the basilar membrane with hair cells was acutely dissected from neonatal mice; endogenous in cells; host or cells: outer hair cells of acutely dissected neonatal mouse cochlea
T4 sequence (Q8R4P5 1-757): T1 sequence (Q8R4P5 1-757)
Method: Thus, the IBG may come from the resting MET current. […] A sinusoidal fluid jet deflected the hair bundle back and forth to open and close the MET channels (Figure 3A, inset). The Im was 98 pA at rest (Figure 3A,B), while the Im was 45 pA at fluid-jet-closed status (Figure 3B, #1). […] Thus, the ILeak persisted in either mechanical closure or pharmacological blockade of the MET channel (Figure 3C).
as §1
The sampling rate was 1 kHz for leak current recording, 50 kHz for the IV protocol and current-clamp recording, and 100 kHz for unitary channel recording. The voltage-clamp used a –70 mV holding potential, and the current-clamp was held at 0 pA. […]
The hair bundle was deflected by two types of mechanical stimulus, fluid jet and glass probe. […] The hair-bundle-removed OHCs with good condition were further recorded. Examined by a fluid-jet stimulation, the OHCs without obvious MET current were further measured for the leak current.

[3] = OHCs, […] Ca2+, holding −70 mV, Hill fit; read-out: IC50, IBG (leak conductance)

size of ILeak conducted by the substituted cation (leak current in OHCs): slightly larger
Structure (SMILES): [Cl-].[Cs+] [Cs^+, CsCl]

Structure (SMILES): COc1cc2c3cc1Oc1cc(ccc1O)C[C@@H]1c4c(cc(OC)c(O)c4Oc4ccc(cc4)C[C@@H]3N(C)CC2)CC[N+]1(C)C [dTC, d-tubocurarine]
Leak nor ([1]; dTC 0.01): 1.062 and 1.003 and 1.024 and 0.9706 and 0.8444 and 0.8511 and 0.9123 | effect on the leak current compared with the MET current ([1]; graded concentrations): affected the leak current, albeit at higher concentrations than the MET current | IC50 ([1]; read-out: IC50, IBG (leak conductance); OHCs, […] Ca2+, holding −70 mV, Hill fit): 82 µM | IC50 (MET channel): 6 µM

blocking effect on the current baseline ([1]; 100 μM, working concentration that blocks MET channels): no blocking effect | IC50 [1, 3]: 487 µM | IC50 (MET channel; read-out: IC50, IMET): 15 µM | DHS-NMDG (ILeak subtracted from that closed by 100 μM DHS), mean ± SEM ([2]; holding −70 mV): –65 ± 6 pA | membrane current in 144 Na + 0.1 DHS (IDHS) ([2]; holding −70 mV): 55 pA
Structure (SMILES): CN[C@@H]1[C@H](O[C@H]2[C@H](O[C@H]3[C@H](O)[C@@H](O)[C@H](NC(=N)N)[C@@H](O)[C@@H]3NC(=N)N)O[C@@H](C)[C@]2(O)CO)O[C@@H](CO)[C@H](O)[C@H]1O [DHS, dihydrostreptomycin]
Leak (normalized) ([1]; DHS 100 μM): 0.7251 and 0.66 and 1.086 and 0.62 and 0.8723 and 0.8832 and 0.9258 | DHS-NMDG subtracted current, individual cells ([2]; source data of Figure 3C): -80.6086 pA and -48.8286 pA and -49.155 pA and -61.767 pA and -98.5004 pA and -60.6081 pA and -57.9458 pA and -59.6138 pA

IC50 [1, 3]: 531 µM | IC50 (MET channel; OHCs, 800 nm step deflection, […] Ca2+, holding −70 mV, Hill fit, read-out: IC50, IMET): 259 µM
Structure (SMILES): [Cl][La]([Cl])[Cl] [La^3+, LaCl3]
